Reference: ChEMBL document CHEMBL1201862, “PubChem BioAssay data set” (2004)
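Five compound concentrations were applied to cells in 96-well plates for 48 hours; endpoints were derived by simple linear interpolation of the resulting dose-response curve. GI50 = concentration required for 50% inhibition of growth.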 Active and inactive are the calls of the source. Cut-off read from the data, not from the text of the source: active = GI50 up to about 1.1 µM and inactive = higher.

Columns and labels:
Test in all cases: DTP human tumour cell line panel, 48 h
[1] = test system: NCI-H23
[2] = test system: MCF7
[3] = test system: U-251
[4] = test system: NCI-H522
[5] = test system: SW-620
[6] = test system: HCT-15
[7] = test system: 786-0
[8] = test system: SK-MEL-5
[9] = test system: BT-549
[10] = test system: MOLT-4
[11] = test system: HOP-62
[12] = test system: HL-60
[13] = test system: UO-31
[14] = test system: A549
[15] = test system: UACC-62
[16] = test system: CCRF-CEM
[17] = test system: UACC-257
[18] = test system: NCI/ADR-RES
[19] = test system: NCI-H460
[20] = test system: EKVX
[21] = test system: M14
[22] = test system: OVCAR-8
[23] = test system: HOP-92
[24] = test system: PC-3
[25] = test system: KM12
[26] = test system: T47D
[27] = test system: SR
[28] = test system: TK-10
[29] = test system: OVCAR-5
[30] = test system: OVCAR-3
[31] = test system: COLO 205
[32] = test system: SNB-19
[33] = test system: SF-268
[34] = test system: Hs-578T
[35] = test system: HCT-116
[36] = test system: K562
[37] = test system: SN12C
[38] = test system: SF-539
[39] = test system: DU-145
[40] = test system: SF-295
[41] = test system: RPMI-8226
[42] = test system: MDA-MB-231
[43] = test system: SK-MEL-2
[44] = test system: ACHN
[45] = test system: HT-29
[46] = test system: SK-OV-3
[47] = test system: IGROV-1
[48] = test system: Malme-3M
[49] = test system: MDA-N
[50] = test system: CAKI-1
[51] = test system: MDA-MB-435

Measured: GI50

CN1C2=Nc3n(C)c4ccccc4[n+]3CN2c2ccccc21
> 100 µM: [6]
inactive: [1] 26.5 µM | [2] 10.5 µM | [3] 25.2 µM | [4] 16.8 µM | [5] 24.3 µM | [7] 36.2 µM | [8] 12.6 µM | [9] > 100 µM | [10] 16.8 µM | [11] > 100 µM | [12] > 100 µM | [13] > 100 µM | [14] 37.6 µM | [15] 17 µM | [16] 47.4 µM | [17] 32.1 µM | [18] > 100 µM | [19] 24.2 µM | [20] 36.1 µM | [21] 43.7 µM | [22] 57.1 µM | [23] 22.6 µM | [24] 47.3 µM | [25] 8.73 µM | [26] 16.3 µM | [27] 28.3 µM | [28] > 100 µM | [29] 84.1 µM | [30] 10.8 µM | [31] 12.7 µM | [32] 35.3 µM | [33] 13.1 µM | [34] 27.5 µM | [35] 43.2 µM | [36] 29.5 µM | [37] 25.8 µM | [38] 69.5 µM | [39] 43.3 µM | [40] 95.7 µM | [41] 41.1 µM | [42] 34.6 µM | [43] 18.4 µM | [44] > 100 µM | [45] 38 µM | [46] > 100 µM | [47] 29.9 µM | [48] 4.21 µM | [49] 17.8 µM | [50] > 100 µM | [51] 26.5 µM
